Measurements: patent US10131652B2, “Pyrimidinyloxy benzene derivatives as herbicides” (E. I. DU PONT DE NEMOURS AND COMPANY, priority 2014, dated 2018)
Like-named read-outs stand apart in the source and are kept apart here.

Legend:
Assay type in all cases: in vivo
[1] = tested on: small-flower umbrella sedge (Cyperus difformis); test: Test C flooded paddy test plant response; conditions: Cyperus difformis; Flood, 250 g ai/ha; scale of 0 to 100 where 0 is no effect and 100 is complete control; 13 to 15 days; read-out: Sedge, Umbrella plant response rating
Outline: (§1)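 Readout is a visual 0–100 score (100 = complete control) versus controls at 13–15 days. Plants at 2-leaf stage, flooded to 3 cm, treated through paddy water.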

rice (Oryza sativa) = test: Test C flooded paddy test plant response; conditions: Oryza sativa; Flood, 250 g ai/ha; scale of 0 to 100 where 0 is no effect and 100 is complete control; 13 to 15 days; read-out: Rice plant response rating
Outline: as §1

[2] = tested on: ducksalad (Heteranthera limosa); test: Test C flooded paddy test plant response; conditions: Heteranthera limosa; Flood, 250 g ai/ha; scale of 0 to 100 where 0 is no effect and 100 is complete control; 13 to 15 days; read-out: Ducksalad plant response rating
Outline: as §1

[3] = tested on: barnyardgrass (Echinochloa crus-galli); test: Test C flooded paddy test plant response; conditions: Echinochloa crus-galli; Flood, 250 g ai/ha; scale of 0 to 100 where 0 is no effect and 100 is complete control; 13 to 15 days; read-out: Barnyardgrass plant response rating
Outline: as §1

[4] = tested on: oilseed rape (Brassica napus); test: Test D pre-/postemergence plant response; conditions: Brassica napus; for plant injury at 31 g/ha: 31 g ai/ha; for plant injury at 62 g/ha: 62 g ai/ha; for plant injury at 125 g/ha: 125 g ai/ha
Excerpt: (§2) Seeds of plant species selected from blackgrass (Alopecurus myosuroides), Italian ryegrass (Lolium multiflorum), winter wheat (Triticum aestivum), galium (catchweed bedstraw, Galium aparine), corn (Zea mays), large (Lg) crabgrass (Digitaria sanguinalis), giant foxtail (Setaria faberii), johnsongrass (Sorghum halepense), lambsquarters (Chenopodium album), morningglory (Ipomoea coccinea), yellow nutsedge (Cyperus esculentus), pigweed (Amaranthus retroflexus), ragweed (common ragweed, Ambrosia elatior), soybean (Glycine max), bamyardgrass (Echinochloa crus-galli), oilseed rape (Brassica napus), waterhemp (common waterhemp, Amaranthus rudis), and velvetleaf (Abutilon theophrasti) were planted into a blend of loam soil and sand and treated preemergence with test chemicals formulated in a non-phytotoxic solvent mixture which included a surfactant. At the same time, plants selected from these crop and weed species and also kochia (Kochia scoparia), wild oat (Avena fatua), and chickweed (common chickweed, Stellaria media) were planted in pots containing Redi-Earth® planting medium (Scotts Company, 14111 Scottslawn Road, Marysville, Ohio 43041) comprising spaghnum peat moss, vermiculite, wetting agent and starter nutrients and treated with postemergence applications of test chemicals formulated in the same manner. Plants ranged in height from 2 to 18 cm (1- to 4-leaf stage) for postemergence treatments. Treated plants and controls were maintained in a greenhouse for 13 to 15 days, after which time all species were compared to controls and visually evaluated. Plant response ratings, summarized in Table D, are based on a scale of 0 to 100 where 0 is no effect and 100 is complete control. A dash (-) response means no test result.

[5] = tested on: yellow nutsedge (Cyperus esculentus); test: Test D pre-/postemergence plant response; conditions: Cyperus; for pest or weed control at 31 g/ha: 31 g ai/ha; for pest or weed control at 62 g/ha: 62 g ai/ha; for pest or weed control at 125 g/ha: 125 g ai/ha
Excerpt: as §2

[6] = tested on: johnsongrass (Sorghum halepense); test: Test D pre-/postemergence plant response; conditions: Sorghum halepense; for pest or weed control at 31 g/ha: 31 g ai/ha; for pest or weed control at 62 g/ha: 62 g ai/ha; for pest or weed control at 125 g/ha: 125 g ai/ha
Excerpt: as §2

[7] = tested on: galium (catchweed bedstraw, Galium aparine); test: Test D pre-/postemergence plant response; conditions: Galium; for pest or weed control at 31 g/ha: 31 g ai/ha; for pest or weed control at 125 g/ha: 125 g ai/ha
Excerpt: as §2

[8] = post-emergence, Postemergence, scale 0 to 100, 0 no effect, 100 complete control, read-out: Plant response rating, Oilseed Rape
[9] = pre-emergence, Preemergence, scale 0 to 100 (0 no effect, 100 complete control), read-out: Plant response rating, Oilseed Rape
[10] = post-emergence, Postemergence, scale 0 to 100, 0 no effect, 100 complete control, read-out: Plant response rating, Nutsedge, Yellow
[11] = pre-emergence, Preemergence, scale 0 to 100 (0 no effect, 100 complete control), read-out: Plant response rating, Nutsedge, Yellow
[12] = post-emergence, Postemergence, scale 0 to 100, 0 no effect, 100 complete control, read-out: Plant response rating, Johnsongrass
[13] = pre-emergence, Preemergence, scale 0 to 100 (0 no effect, 100 complete control), read-out: Plant response rating, Johnsongrass

`Fc1cccc(Oc2ncc(Cl)cn2)c1-c1cc(C(F)(F)F)on1` [Compound 168, 5-chloro-2-[2-[5-(trifluoromethyl)-3-isoxazolyl]-3-fluorophenoxy]pyrimidine] gave a pest or weed control at 250 g/ha [1] of 90%, a plant injury at 250 g/ha (rice (Oryza sativa)) of 40% and a pest or weed control at 250 g/ha [2] of 90%. The pest or weed control at 250 g/ha [3] was 90%, the plant injury at 31 g/ha ([4]; post-emergence, Postemergence, scale 0 to 100 (0 no effect, 100 complete control), read-out: Oilseed Rape plant response rating) was 100% and the plant injury at 62 g/ha [4, 8] was 100%. It also gave a plant injury at 125 g/ha [4, 8] of 100%, a plant injury at 125 g/ha ([4]; pre-emergence, Preemergence, read-out: Plant response rating (scale 0 to 100), Oilseed Rape) of 100% and a plant injury at 16 g/ha ([4]; pre-emergence, Preemergence, 16 g ai/ha, scale 0 to 100 (0 no effect, 100 complete control), read-out: Plant response rating, Oilseed Rape) of 95%. It also gave a plant injury at 31 g/ha [4, 9] of 100%, a plant injury at 62 g/ha [4, 9] of 100% and a pest or weed control at 31 g/ha ([5]; post-emergence, Postemergence, scale 0 to 100 (0 no effect, 100 complete control), read-out: Nutsedge, Yellow plant response rating) of 5%. The pest or weed control at 62 g/ha [5, 10] was 10%, the pest or weed control at 125 g/ha [5, 10] was 15% and the pest or weed control at 125 g/ha ([5]; pre-emergence, Preemergence, read-out: Plant response rating (scale 0 to 100), Nutsedge, Yellow) was 45%. It also gave a pest or weed control at 16 g/ha ([5]; pre-emergence, Preemergence, 16 g ai/ha, scale 0 to 100 (0 no effect, 100 complete control), read-out: Plant response rating, Nutsedge, Yellow) of 5%, a pest or weed control at 31 g/ha [5, 11] of 5% and a pest or weed control at 62 g/ha [5, 11] of 15%. For the same molecule, the pest or weed control at 31 g/ha ([6]; post-emergence, Postemergence, scale 0 to 100 (0 no effect, 100 complete control), read-out: Johnsongrass plant response rating) was 5%, the pest or weed control at 62 g/ha [6, 12] was 5% and the pest or weed control at 125 g/ha [6, 12] was 20%. It also gave a pest or weed control at 125 g/ha ([6]; pre-emergence, Preemergence, read-out: Plant response rating (scale 0 to 100), Johnsongrass) of 100%, a pest or weed control at 16 g/ha ([6]; pre-emergence, Preemergence, 16 g ai/ha, scale 0 to 100 (0 no effect, 100 complete control), read-out: Plant response rating, Johnsongrass) of 35% and a pest or weed control at 31 g/ha [6, 13] of 95%. It also gave a pest or weed control at 62 g/ha [6, 13] of 85%, a pest or weed control at 31 g/ha ([7]; post-emergence, Postemergence, scale 0 to 100 (0 no effect, 100 complete control), read-out: Galium plant response rating) of 95% and a pest or weed control at 62 g/ha ([7]; post-emergence, Postemergence, 62 g ai/ha, scale 0 to 100, 0 no effect, 100 complete control, read-out: Plant response rating, Galium) of 95%. For the same molecule, the pest or weed control at 125 g/ha ([7]; post-emergence, Postemergence, scale 0 to 100, 0 no effect, 100 complete control, read-out: Plant response rating, Galium) was 100%, the pest or weed control at 125 g/ha ([7]; pre-emergence, Preemergence, read-out: Plant response rating (scale 0 to 100), Galium) was 100% and the pest or weed control at 16 g/ha ([7]; pre-emergence, Preemergence, 16 g ai/ha, scale 0 to 100 (0 no effect, 100 complete control), read-out: Plant response rating, Galium) was 100%. The pest or weed control at 31 g/ha ([7]; pre-emergence, Preemergence, scale 0 to 100 (0 no effect, 100 complete control), read-out: Plant response rating, Galium) was 100%.
